Data taken from ChEMBL document CHEMBL4393654, “Discovery and Early Clinical Development of an Inhibitor of 5-Lipoxygenase Activating Protein (AZD5718) for Treatment of Coronary Artery Disease” (J Med Chem, 2019).

Assays:
[1] = Oral bioavailability in Beagle dog at 2 umol/kg; type: ADME, organism-based, Canis lupus familiaris; details: in vivo
[2] = biological target: Cytochrome P450 2C19 (Homo sapiens, UniProt P33261); test: Inhibition of recombinant human CYP2C19 expressed in Escherichia coli using CEC as substrate by fluorescence assay; type: ADME
[3] = Clearance in rat at 1 umol/kg, iv; type: ADME; details: in vivo
[4] = Clearance in Beagle dog at 2 umol/kg, iv; type: ADME, Canis lupus familiaris; details: in vivo
[5] = Oral bioavailability in rat at 2.5 umol/kg; type: ADME, organism-based; details: in vivo
[6] = Half life in Beagle dog at 2 umol/kg, iv; type: ADME, Canis lupus familiaris; details: in vivo
[7] = biological target: Potassium voltage-gated channel subfamily A member 5 (Homo sapiens, UniProt P22460); test: Inhibition of human Kv1.5 by Ion-work electrophysiology assay
[8] = biological target: Potassium/sodium hyperpolarization-activated cyclic nucleotide-gated channel 4 (Homo sapiens, UniProt Q9Y3Q4); test: Inhibition of human HCN4 by Ion-work electrophysiology assay
[9] = Toxicity in conscious telemetered Beagle dog assessed as vomiting; parameters: species or system Canis lupus familiaris; details: in vivo
[10] = biological target: T1, A-type voltage-gated potassium channel KCND3 (Homo sapiens, UniProt Q9UK17); test: Inhibition of human Kv4.3 by Ion-work electrophysiology assay
T1 sequence (Q9UK17 whole entry): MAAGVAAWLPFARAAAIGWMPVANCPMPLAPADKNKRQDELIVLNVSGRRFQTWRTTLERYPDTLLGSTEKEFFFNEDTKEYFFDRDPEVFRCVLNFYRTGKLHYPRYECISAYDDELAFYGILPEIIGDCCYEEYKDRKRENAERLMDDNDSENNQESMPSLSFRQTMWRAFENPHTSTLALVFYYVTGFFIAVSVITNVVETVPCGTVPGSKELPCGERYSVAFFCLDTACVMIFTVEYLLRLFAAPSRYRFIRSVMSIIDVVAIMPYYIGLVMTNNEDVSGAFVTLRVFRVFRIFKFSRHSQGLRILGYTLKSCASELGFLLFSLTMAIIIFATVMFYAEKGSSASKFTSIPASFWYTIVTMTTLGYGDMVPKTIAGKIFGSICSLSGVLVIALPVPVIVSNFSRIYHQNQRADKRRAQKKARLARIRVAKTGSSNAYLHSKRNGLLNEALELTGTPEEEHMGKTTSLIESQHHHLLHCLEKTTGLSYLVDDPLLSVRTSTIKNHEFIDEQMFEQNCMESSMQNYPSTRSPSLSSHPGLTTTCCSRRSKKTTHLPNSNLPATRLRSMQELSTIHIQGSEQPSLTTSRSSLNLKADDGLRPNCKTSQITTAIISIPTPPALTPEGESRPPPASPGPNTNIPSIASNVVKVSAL

[11] = Half life in rat at 1 umol/kg, iv; type: ADME; details: in vivo
[12] = Volume of distribution at steady state in rat at 1 umol/kg, iv; type: ADME; details: in vivo, read-out: Vdss
[13] = biological target: T2, Aryl hydrocarbon receptor (Homo sapiens, UniProt P35869); test: Agonist activity at AhR in human HepG2 cells assessed as induction of CYP1A1 activity at 0.001 to 30 uM measured after 24 hrs by immunocytochemistry analysis; type: ADME, cell-based; details: hepg2, 24 h
T2 sequence (P35869 whole entry): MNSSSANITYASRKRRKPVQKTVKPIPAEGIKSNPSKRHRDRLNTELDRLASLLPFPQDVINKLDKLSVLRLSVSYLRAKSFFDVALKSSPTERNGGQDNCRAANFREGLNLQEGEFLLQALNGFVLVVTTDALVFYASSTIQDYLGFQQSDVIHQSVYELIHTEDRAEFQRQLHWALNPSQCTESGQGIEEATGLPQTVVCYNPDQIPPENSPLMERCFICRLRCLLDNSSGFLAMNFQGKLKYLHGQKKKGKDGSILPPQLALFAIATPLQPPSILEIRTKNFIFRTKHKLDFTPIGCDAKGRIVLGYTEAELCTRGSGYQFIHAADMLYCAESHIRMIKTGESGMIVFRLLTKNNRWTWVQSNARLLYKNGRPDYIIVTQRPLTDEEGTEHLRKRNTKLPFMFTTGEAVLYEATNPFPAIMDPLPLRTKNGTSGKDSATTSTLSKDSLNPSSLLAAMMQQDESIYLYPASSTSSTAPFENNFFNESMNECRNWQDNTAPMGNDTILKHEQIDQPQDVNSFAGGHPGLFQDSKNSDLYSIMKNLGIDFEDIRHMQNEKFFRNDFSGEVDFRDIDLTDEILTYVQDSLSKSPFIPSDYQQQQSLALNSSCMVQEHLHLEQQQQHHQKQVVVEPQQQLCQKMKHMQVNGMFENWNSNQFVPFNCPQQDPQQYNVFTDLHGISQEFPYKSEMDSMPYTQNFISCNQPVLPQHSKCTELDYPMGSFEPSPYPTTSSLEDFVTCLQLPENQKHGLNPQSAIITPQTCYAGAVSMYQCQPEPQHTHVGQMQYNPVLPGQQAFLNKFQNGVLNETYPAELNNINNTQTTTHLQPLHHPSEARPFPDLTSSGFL

[14] = biological target: Voltage-dependent T-type calcium channel subunit alpha-1H (Homo sapiens, UniProt O95180); test: Inhibition of human Cav3.2 by Ion-work electrophysiology assay
[15] = biological target: T3, Cytochrome P450 1A2 (Homo sapiens, UniProt P05177); test: Inhibition of recombinant human CYP1A2 expressed in Escherichia coli using CEC as substrate by fluorescence assay; type: ADME
T3 sequence (P05177 whole entry): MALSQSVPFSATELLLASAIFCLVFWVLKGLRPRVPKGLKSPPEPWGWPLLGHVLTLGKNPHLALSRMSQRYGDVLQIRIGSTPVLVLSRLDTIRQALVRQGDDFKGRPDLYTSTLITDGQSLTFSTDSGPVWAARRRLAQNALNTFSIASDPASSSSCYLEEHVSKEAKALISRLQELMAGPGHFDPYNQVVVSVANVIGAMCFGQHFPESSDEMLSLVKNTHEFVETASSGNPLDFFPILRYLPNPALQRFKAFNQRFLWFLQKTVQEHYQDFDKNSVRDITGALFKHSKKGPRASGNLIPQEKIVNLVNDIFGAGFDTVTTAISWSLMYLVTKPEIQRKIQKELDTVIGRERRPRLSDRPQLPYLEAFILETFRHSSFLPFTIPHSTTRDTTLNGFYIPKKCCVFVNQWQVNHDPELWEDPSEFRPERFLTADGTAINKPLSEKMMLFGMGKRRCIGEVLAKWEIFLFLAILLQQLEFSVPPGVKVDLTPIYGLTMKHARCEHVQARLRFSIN

[16] = Volume of distribution at steady state in Beagle dog at 2 umol/kg, iv; type: ADME, Canis lupus familiaris; details: in vivo, read-out: Vdss
[17] = Volume of distribution at steady state in Beagle dog at 1 umol/kg, iv; type: ADME, Canis lupus familiaris; details: in vivo, read-out: Vdss
[18] = biological target: Solute carrier organic anion transporter family member 1B1 (Homo sapiens, UniProt Q9Y6L6); test: […] at recombinant human OATP1B1 expressed in HEK293 cells assessed as reduction in pivastatin uptake; type: ADME, cell-based
[19] = Oral bioavailability in rat at 2 umol/kg; type: ADME, organism-based; details: in vivo
[20] = Oral bioavailability in Beagle dog at 4.2 umol/kg; type: ADME, organism-based, Canis lupus familiaris; details: in vivo
[21] = Volume of distribution at steady state in rat at 2 umol/kg, iv; type: ADME; details: in vivo, read-out: Vdss

Cytochrome P450 2C19, sequence (P33261 whole entry): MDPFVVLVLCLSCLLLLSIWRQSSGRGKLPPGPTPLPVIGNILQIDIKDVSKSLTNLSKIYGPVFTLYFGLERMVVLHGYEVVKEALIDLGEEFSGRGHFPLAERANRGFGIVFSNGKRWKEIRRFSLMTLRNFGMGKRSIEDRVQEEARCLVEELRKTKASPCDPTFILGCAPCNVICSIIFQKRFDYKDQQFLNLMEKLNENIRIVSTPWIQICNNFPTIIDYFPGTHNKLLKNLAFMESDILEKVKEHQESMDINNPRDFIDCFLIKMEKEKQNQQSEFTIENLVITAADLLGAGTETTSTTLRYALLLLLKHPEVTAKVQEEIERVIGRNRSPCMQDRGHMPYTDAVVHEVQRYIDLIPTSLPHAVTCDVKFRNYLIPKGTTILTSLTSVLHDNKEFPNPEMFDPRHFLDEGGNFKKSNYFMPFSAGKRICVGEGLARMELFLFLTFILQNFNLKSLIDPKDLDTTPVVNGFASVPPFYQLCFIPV
Potassium voltage-gated channel subfamily A member 5, sequence (P22460 whole entry): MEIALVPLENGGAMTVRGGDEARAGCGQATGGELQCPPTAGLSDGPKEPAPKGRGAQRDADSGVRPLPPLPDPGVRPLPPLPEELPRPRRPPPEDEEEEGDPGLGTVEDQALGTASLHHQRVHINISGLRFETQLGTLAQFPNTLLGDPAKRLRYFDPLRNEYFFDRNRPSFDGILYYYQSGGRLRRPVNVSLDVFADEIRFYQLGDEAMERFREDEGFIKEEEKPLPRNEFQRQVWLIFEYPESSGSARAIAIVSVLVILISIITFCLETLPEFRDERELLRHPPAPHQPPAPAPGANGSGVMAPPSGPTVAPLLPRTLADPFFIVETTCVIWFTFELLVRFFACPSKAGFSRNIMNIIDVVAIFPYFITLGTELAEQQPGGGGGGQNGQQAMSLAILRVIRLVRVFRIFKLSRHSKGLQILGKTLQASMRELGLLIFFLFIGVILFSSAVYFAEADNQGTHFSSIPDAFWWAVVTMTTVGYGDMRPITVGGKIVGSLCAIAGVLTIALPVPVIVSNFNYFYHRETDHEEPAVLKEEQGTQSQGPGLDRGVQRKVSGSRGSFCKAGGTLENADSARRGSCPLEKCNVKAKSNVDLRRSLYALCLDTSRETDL
Voltage-dependent T-type calcium channel subunit alpha-1H, sequence (O95180 whole entry): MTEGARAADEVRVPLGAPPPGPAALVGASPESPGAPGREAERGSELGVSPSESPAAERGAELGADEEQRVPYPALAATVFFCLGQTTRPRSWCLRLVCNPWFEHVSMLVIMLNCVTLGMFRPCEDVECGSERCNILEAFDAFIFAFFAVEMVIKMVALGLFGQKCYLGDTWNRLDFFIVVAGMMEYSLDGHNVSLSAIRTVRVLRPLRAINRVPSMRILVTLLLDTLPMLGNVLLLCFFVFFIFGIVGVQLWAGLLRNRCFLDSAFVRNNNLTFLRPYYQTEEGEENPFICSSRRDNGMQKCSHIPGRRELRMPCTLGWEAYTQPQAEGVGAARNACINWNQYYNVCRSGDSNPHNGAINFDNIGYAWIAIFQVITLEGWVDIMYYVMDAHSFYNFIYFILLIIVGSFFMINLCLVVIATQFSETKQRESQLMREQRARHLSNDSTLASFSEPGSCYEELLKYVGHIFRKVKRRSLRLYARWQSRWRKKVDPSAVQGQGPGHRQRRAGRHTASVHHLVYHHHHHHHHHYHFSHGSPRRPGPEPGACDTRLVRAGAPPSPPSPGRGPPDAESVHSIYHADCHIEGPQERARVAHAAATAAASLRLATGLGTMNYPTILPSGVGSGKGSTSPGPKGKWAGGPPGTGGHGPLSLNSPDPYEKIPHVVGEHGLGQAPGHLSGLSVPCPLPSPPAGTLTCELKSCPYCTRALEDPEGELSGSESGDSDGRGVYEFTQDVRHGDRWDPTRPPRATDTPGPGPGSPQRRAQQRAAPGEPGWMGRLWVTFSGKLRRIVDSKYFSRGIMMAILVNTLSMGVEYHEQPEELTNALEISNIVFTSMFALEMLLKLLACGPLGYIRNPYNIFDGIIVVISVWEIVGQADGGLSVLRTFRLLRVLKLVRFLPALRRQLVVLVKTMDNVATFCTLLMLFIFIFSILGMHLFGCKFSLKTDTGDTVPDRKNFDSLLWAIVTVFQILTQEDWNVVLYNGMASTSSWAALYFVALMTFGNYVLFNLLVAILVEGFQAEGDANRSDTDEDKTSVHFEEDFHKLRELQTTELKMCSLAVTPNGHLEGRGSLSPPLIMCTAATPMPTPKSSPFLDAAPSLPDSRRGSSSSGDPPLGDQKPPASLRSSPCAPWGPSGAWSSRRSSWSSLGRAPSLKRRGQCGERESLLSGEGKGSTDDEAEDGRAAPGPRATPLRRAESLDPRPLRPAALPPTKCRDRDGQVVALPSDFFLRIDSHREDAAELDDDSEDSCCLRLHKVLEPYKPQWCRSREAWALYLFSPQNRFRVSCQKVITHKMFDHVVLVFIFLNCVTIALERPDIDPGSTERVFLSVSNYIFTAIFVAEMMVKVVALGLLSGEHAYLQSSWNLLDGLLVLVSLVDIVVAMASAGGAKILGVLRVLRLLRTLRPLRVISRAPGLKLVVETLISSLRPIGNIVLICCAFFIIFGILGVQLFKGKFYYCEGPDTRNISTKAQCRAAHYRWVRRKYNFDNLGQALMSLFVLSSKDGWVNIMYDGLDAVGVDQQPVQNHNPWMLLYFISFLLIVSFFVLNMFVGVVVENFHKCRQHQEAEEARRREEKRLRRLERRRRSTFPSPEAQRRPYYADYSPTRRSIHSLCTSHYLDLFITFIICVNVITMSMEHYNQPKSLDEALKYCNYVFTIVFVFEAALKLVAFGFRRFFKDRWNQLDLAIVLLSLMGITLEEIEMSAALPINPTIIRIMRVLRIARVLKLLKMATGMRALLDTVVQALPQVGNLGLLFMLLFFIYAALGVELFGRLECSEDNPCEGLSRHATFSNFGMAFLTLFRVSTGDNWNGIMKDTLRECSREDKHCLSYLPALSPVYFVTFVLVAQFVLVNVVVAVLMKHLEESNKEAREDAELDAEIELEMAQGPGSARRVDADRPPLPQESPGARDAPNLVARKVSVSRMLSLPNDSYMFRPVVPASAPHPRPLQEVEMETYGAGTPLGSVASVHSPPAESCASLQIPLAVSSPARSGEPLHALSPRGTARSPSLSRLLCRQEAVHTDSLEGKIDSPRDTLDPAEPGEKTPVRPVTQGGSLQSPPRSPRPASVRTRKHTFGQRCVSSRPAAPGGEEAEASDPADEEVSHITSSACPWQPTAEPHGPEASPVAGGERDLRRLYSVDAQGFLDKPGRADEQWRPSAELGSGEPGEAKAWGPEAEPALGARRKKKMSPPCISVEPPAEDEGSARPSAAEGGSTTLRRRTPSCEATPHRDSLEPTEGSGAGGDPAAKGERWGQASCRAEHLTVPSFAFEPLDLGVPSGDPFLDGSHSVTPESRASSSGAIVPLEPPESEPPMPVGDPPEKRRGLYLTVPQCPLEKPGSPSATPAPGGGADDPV
Potassium/sodium hyperpolarization-activated cyclic nucleotide-gated channel 4, sequence (Q9Y3Q4 whole entry): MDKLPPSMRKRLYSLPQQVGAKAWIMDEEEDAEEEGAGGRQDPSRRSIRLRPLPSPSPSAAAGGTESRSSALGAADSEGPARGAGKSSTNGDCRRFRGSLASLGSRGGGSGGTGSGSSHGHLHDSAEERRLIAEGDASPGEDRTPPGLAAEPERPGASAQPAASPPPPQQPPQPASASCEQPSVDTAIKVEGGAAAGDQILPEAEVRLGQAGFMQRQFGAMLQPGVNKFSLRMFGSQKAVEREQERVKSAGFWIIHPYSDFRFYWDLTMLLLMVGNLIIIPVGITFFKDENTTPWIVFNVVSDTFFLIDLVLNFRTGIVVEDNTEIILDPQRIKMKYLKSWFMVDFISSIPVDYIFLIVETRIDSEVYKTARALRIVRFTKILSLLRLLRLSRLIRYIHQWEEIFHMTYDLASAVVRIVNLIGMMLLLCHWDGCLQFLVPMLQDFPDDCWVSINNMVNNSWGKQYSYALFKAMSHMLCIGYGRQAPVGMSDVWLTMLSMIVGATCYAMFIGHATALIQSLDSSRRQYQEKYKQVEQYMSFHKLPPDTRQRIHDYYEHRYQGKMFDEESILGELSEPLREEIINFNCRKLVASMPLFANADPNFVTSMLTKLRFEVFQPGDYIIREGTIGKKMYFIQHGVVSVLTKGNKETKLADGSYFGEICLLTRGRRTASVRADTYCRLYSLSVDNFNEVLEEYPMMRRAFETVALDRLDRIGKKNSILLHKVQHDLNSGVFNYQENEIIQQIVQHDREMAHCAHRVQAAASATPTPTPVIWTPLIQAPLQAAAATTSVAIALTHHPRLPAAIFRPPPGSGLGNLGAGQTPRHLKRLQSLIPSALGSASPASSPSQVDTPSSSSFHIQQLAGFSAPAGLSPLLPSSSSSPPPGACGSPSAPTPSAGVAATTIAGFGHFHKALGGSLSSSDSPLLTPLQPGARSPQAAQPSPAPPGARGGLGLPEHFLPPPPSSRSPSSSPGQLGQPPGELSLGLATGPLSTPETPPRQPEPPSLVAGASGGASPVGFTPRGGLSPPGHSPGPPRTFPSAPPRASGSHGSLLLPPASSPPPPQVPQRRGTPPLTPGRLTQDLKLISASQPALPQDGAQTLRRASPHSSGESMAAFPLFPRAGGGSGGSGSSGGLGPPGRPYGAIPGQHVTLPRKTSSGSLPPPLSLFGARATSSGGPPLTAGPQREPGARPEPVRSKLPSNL

Row | SMILES | bioavailability [1] [%] | IC50 [2] [µM] | clearance [3] [mL/min/kg] | clearance [4] [mL/min/kg] | half-life [6] [h] | IC50 [7] [µM] | IC50 [8] [µM] | Activity [9] | IC50 [10] [µM] | half-life [11] [h] | Vd [12] [L/kg] | Activity [13] | IC50 [14] [µM] | IC50 [15] [µM] | Vd [16] [L/kg] | IC50 [18] [µM] | further results
1 | Cc1cc(-c2ccc(C(=O)[C@@H]3CCCC[C@H]3C(=O)Nc3cnn4c3C(=O)NCC4)cc2)[nH]n1 | 65 | > 20 | 36 | 7.6 | 2.1 | > 32 | > 32 | Non-Toxic | > 33 | 0.45 | 1.1 | Not Active | > 32 | > 20 | 1.1 | – | bioavailability [5]: 14%
2 | Cc1cc(-c2ccc(C(=O)[C@@H]3CCCC[C@H]3C(=O)Nc3cnn(C)c3C(=O)NOC(C)(C)C)cc2)[nH]n1 | 65 | > 20 | 1.2 | – | – | – | – | – | > 33 | 4.7 | 0.18 | Not Active | – | > 20 | – | 1.4 | Vd [17]: 0.4 L/kg; bioavailability [19]: 12%
3 | Cc1cc(-c2ccc(C(=O)[C@@H]3CCCC[C@H]3C(=O)Nc3cnn(C)c3S(N)(=O)=O)cc2)[nH]n1 | – | > 20 | – | 2.5 | 6.8 | > 32 | > 32 | Toxic | > 33 | – | – | Not Active | > 32 | > 20 | 1.3 | 2.5 | bioavailability [20]: 65%; Vd [21]: 1.3 L/kg
